Measured values: patent US12060400B2, “Peptides for use in immunotherapy against cancers” (Immatics Biotechnologies GmbH, priority 2018, dated 2024)

tested on: CD8+ T cells of healthy HLA-A*24 donors; experiment: In vitro immunogenicity: priming of CD8+ T cells with aAPCs loaded with peptide/MHC and anti-CD28, pMHC multimer readout; type: cell-based, human; details: FIGS. 3A-3G; healthy HLA-A*24+ donor, three cycles of stimulation, 2D multimer staining
Excerpt: In order to obtain information regarding the immunogenicity of the TUMAPs of the present invention, the inventors performed investigations using an in vitro T-cell priming assay based on repeated stimulations of CD8+ T cells with artificial antigen presenting cells (aAPCs) loaded with peptide/MHC complexes and anti-CD28 antibody.
In order to perform in vitro stimulations by artificial antigen presenting cells loaded with peptide-MHC complex (pMHC) and anti-CD28 antibody, the inventors first isolated CD8+ T cells from fresh HLA-A*24 leukapheresis products via positive selection using CD8 microbeads (Miltenyi Biotec, Bergisch-Gladbach, Germany) of healthy donors obtained from the University clinics Mannheim, Germany, after informed consent.
PBMCs and isolated CD8+ lymphocytes were incubated in T-cell medium (TCM) until use consisting of RPMI-Glutamax (Invitrogen, Karlsruhe, Germany) supplemented with 10% heat inactivated human AB serum (PAN-Biotech, Aidenbach, Germany), 100 U/ml Penicillin/100 μg/ml Streptomycin (Cambrex, Cologne, Germany), 1 mM sodium pyruvate (CC Pro, Oberdorla, Germany), 20 μg/ml Gentamycin (Cambrex). 2.5 ng/ml IL-7 (PromoCell, Heidelberg, Germany) and 10 U/ml IL-2 (Novartis Pharma, Nurnberg, Germany) were also added to the TCM at this step.
Generation of pMHC/anti-CD28 coated beads, T-cell stimulations and readout was performed in a highly defined in vitro system using four different pMHC molecules per stimulation condition and 8 different pMHC molecules per readout condition.
The purified co-stimulatory mouse IgG2a anti human CD28 Ab 9.3 (Jung et al., 1987) was chemically biotinylated using Sulfo-N-hydroxysuccinimidobiotin as recommended by the manufacturer (Perbio, Bonn, Germany). Beads used were 5.6 μm diameter streptavidin coated polystyrene particles (Bangs Laboratories, Illinois, USA).
800.000 beads/200 μl were coated in 96-well plates in the presence of 4×12.5 ng different biotin-pMHC, washed and 600 ng biotin anti-CD28 were added subsequently in a volume of 200 μl. Stimulations were initiated in 96-well plates by co-incubating […] CD8+ T cells with 2×10^5 washed coated beads in 200 μl TCM supplemented with 5 ng/ml IL-12 (PromoCell) for 3 days at 37° C. Half of the medium was then exchanged by fresh TCM supplemented with 80 U/ml IL-2 and incubating was continued for 4 days at 37° C. This stimulation cycle was performed for a total of three times. For the pMHC multimer readout using 8 different pMHC molecules per condition, a two-dimensional combinatorial coding approach was used as previously described (Andersen et al., 2012) with minor modifications encompassing coupling to 5 different fluorochromes. Finally, multimeric analyses were performed by staining the cells with Live/dead near IR dye (Invitrogen, Karlsruhe, Germany), CD8-FITC antibody clone SK1 (BD, Heidelberg, Germany) and fluorescent pMHC multimers. For analysis, a BD LSRII SORP cytometer equipped with appropriate lasers and filters was used. Peptide specific cells were calculated as percentage of total CD8+ cells. Evaluation of multimeric analysis was done using the FlowJo software (Tree Star, Oregon, USA). In vitro priming of specific multimer+ CD8+ lymphocytes was detected by comparing to negative control stimulations.

Question: How did the “peptide-specific in vitro CD8+ T cell responses” value (“peptide-specific” below) turn out when “LYGFFFKI (listed as Homo sapiens) [SEQ ID NO: 77]” was run?
Answer: peptide-specific in vitro CD8+ T cell responses

Question: How did the “peptide-specific” value turn out when “VYEKNGYIYF (listed as Homo sapiens) [SEQ ID NO: 420]” was run?
Answer: peptide-specific in vitro CD8+ T cell responses

Question: For “IYIYPFAHW (listed as Homo sapiens) [SEQ ID NO: 76]”, which “peptide-specific” value is on record?
Answer: peptide-specific in vitro CD8+ T cell responses

Question: How did the “peptide-specific” value turn out when “LQPQPQLFFSF (listed as Homo sapiens) [SEQ ID NO: 5]” was run?
Answer: peptide-specific in vitro CD8+ T cell responses

Question: For “FYPEVELNF (listed as Homo sapiens) [SEQ ID NO: 32]”, which “peptide-specific” value is on record?
Answer: peptide-specific in vitro CD8+ T cell responses

Question: With “VYPPYLNYL (listed as Homo sapiens) [SEQ ID NO: 411]” as the substance, how does the “peptide-specific” value read?
Answer: peptide-specific in vitro CD8+ T cell responses

Question: How did the “peptide-specific” value turn out when “VYSSFVFNLF (listed as Homo sapiens) [SEQ ID NO: 23]” was run?
Answer: peptide-specific in vitro CD8+ T cell responses

same assay, conditions: Table 10a; in vitro priming of CD8+ T cells, pMHC multimer readout; share of wells positive

Question: With “429 (YYSKSVGFMQW; listed as Homo sapiens) [compound 429]” as the substance, how does the “Wells positive [%]” value read?
Answer: ++ (20%-49% = ++)

Question: Which “Wells positive [%]” value does the source give for “400 (RYLEKFYGL; listed as Homo sapiens) [compound 400]” here?
Answer: + (<20% = +)

Question: How did the “Wells positive [%]” value turn out when “395 (NYEDHFPLL; listed as Homo sapiens) [compound 395]” was run?
Answer: ++ (20%-49% = ++)

Question: For “411 (VYPPYLNYL; listed as Homo sapiens) [compound 411]”, which “Wells positive [%]” value is on record?
Answer: ++++ (>=70% = ++++)

Question: With “447 (EYIRALQQL; listed as Homo sapiens) [compound 447]” as the substance, how does the “Wells positive [%]” value read?
Answer: + (<20% = +)

Question: “399 (VWSNVTPLKF; listed as Homo sapiens) [compound 399]” was tested. Which “Wells positive [%]” value did it give?
Answer: + (<20% = +)

Question: With “422 (VWSDVTPLNF; listed as Homo sapiens) [compound 422]” as the substance, how does the “Wells positive [%]” value read?
Answer: + (<20% = +)

Question: How did the “Wells positive [%]” value turn out when “416 (VFMKDGFFYF; listed as Homo sapiens) [compound 416]” was run?
Answer: + (<20% = +)

Question: How did the “Wells positive [%]” value turn out when “448 (PFLPPAACFF; listed as Homo sapiens) [compound 448]” was run?
Answer: + (<20% = +)

Question: With “393 (SYNDALLTF; listed as Homo sapiens) [compound 393]” as the substance, how does the “Wells positive [%]” value read?
Answer: +++ (50%-69% = +++)

Question: How did the “Wells positive [%]” value turn out when “420 (VYEKNGYIYF; listed as Homo sapiens) [compound 420]” was run?
Answer: ++++ (>=70% = ++++)

Question: For “453 (YYTVRNFTL; listed as Homo sapiens) [compound 453]”, which “Wells positive [%]” value is on record?
Answer: + (<20% = +)

Question: With “455 (KYLSIPTVF; listed as Homo sapiens) [compound 455]” as the substance, how does the “Wells positive [%]” value read?
Answer: + (<20% = +)

Question: “409 (VYTFLSSTL; listed as Homo sapiens) [compound 409]” was tested. Which “Wells positive [%]” value did it give?
Answer: + (<20% = +)

Question: For “440 (NYGVLHVTF; listed as Homo sapiens) [compound 440]”, which “Wells positive [%]” value is on record?
Answer: + (<20% = +)

Question: How did the “Wells positive [%]” value turn out when “398 (GYLQGLVSF; listed as Homo sapiens) [compound 398]” was run?
Answer: ++ (20%-49% = ++)

Question: With “408 (VWSDVTPLTF; listed as Homo sapiens) [compound 408]” as the substance, how does the “Wells positive [%]” value read?
Answer: + (<20% = +)

Question: How did the “Wells positive [%]” value turn out when “434 (VYDTMIEKF; listed as Homo sapiens) [compound 434]” was run?
Answer: + (<20% = +)

Question: Which “Wells positive [%]” value does the source give for “406 (KYLEKYYNL; listed as Homo sapiens) [compound 406]” here?
Answer: ++ (20%-49% = ++)

Question: With “436 (KYLQVVGMF; listed as Homo sapiens) [compound 436]” as the substance, how does the “Wells positive [%]” value read?
Answer: + (<20% = +)

Question: “415 (KYEKIFEML; listed as Homo sapiens) [compound 415]” was tested. Which “Wells positive [%]” value did it give?
Answer: + (<20% = +)

Question: “402 (TYKYVDINTF; listed as Homo sapiens) [compound 402]” was tested. Which “Wells positive [%]” value did it give?
Answer: + (<20% = +)

Question: With “392 (SYEKVINYL; listed as Homo sapiens) [compound 392]” as the substance, how does the “Wells positive [%]” value read?
Answer: + (<20% = +)

Question: Which “Wells positive [%]” value does the source give for “390 (KYKDYFPVI; listed as Homo sapiens) [compound 390]” here?
Answer: + (<20% = +)
